#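 Compound exposure: 48 hours, 5 concentrations, 96-well plates. GI50: concentration for 50% inhibition of growth.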 Active and inactive are the calls of the source. Rule as the data show it: active = GI50 up to about 1.1 µM and inactive = higher.
# What was measured:
# Assay in all cases: NCI-60 cell line screen, 48 h
# 786-0 = test system: 786-0
# A549 = test system: A549
# ACHN = test system: ACHN
# CCRF-CEM = test system: CCRF-CEM
# COLO 205 = test system: COLO 205
# DLD-1 = test system: DLD-1
# DMS-114 = test system: DMS-114
# DMS-273 = test system: DMS-273
# EKVX = test system: EKVX
# HCC 2998 = test system: HCC 2998
# HCT-116 = test system: HCT-116
# HCT-15 = test system: HCT-15
# HL-60 = test system: HL-60
# HOP-18 = test system: HOP-18
# HOP-62 = test system: HOP-62
# HOP-92 = test system: HOP-92
# HT-29 = test system: HT-29
# IGROV-1 = test system: IGROV-1
# K562 = test system: K562
# KM-20L2 = test system: KM-20L2
# KM12 = test system: KM12
# LOX IMVI = test system: LOX IMVI
# LXFL 529 = test system: LXFL 529
# M14 = test system: M14
# M19-MEL = test system: M19-MEL
# MOLT-4 = test system: MOLT-4
# Malme-3M = test system: Malme-3M
# NCI-H226 = test system: NCI-H226
# NCI-H23 = test system: NCI-H23
# NCI-H460 = test system: NCI-H460
# NCI-H522 = test system: NCI-H522
# OVCAR-3 = test system: OVCAR-3
# OVCAR-5 = test system: OVCAR-5
# OVCAR-8 = test system: OVCAR-8
# RPMI-8226 = test system: RPMI-8226
# RXF 393 = test system: RXF 393
# RXF 631 = test system: RXF 631
# SF-268 = test system: SF-268
# SF-295 = test system: SF-295
# SF-539 = test system: SF-539
# SK-MEL-28 = test system: SK-MEL-28
# SK-MEL-2 = test system: SK-MEL-2
# SK-MEL-5 = test system: SK-MEL-5
# SK-OV-3 = test system: SK-OV-3
# SN12C = test system: SN12C
# SNB-19 = test system: SNB-19
# SNB-75 = test system: SNB-75
# SNB-78 = test system: SNB-78
# SR = test system: SR
# SW-620 = test system: SW-620
# TK-10 = test system: TK-10
# U-251 = test system: U-251
# UACC-257 = test system: UACC-257
# UACC-62 = test system: UACC-62
# UO-31 = test system: UO-31
# XF498 = test system: XF498
# A498 = test system: A498
# CAKI-1 = test system: CAKI-1
# OVCAR-4 = test system: OVCAR-4
smiles,measurement,setting,value
COc1cc2c3c(c1OC)-c1ccccc1C(C(O)c1ccccc1)C3N(C)CC2 (stereo not drawn),GI50,786-0,30.7 µM (inactive)
same,GI50,A549,39.5 µM (inactive)
same,GI50,ACHN,39.1 µM (inactive)
same,GI50,CCRF-CEM,26.2 µM (inactive)
same,GI50,COLO 205,15.8 µM (inactive)
same,GI50,DLD-1,26.4 µM (inactive)
same,GI50,DMS-114,17.6 µM (inactive)
same,GI50,DMS-273,25.5 µM (inactive)
same,GI50,EKVX,90.4 µM (inactive)
same,GI50,HCC 2998,17.7 µM (inactive)
same,GI50,HCT-116,19.6 µM (inactive)
same,GI50,HCT-15,25.4 µM
same,GI50,HL-60,20 µM (inactive)
same,GI50,HOP-18,82.8 µM (inactive)
same,GI50,HOP-62,24.3 µM (inactive)
same,GI50,HOP-92,53.3 µM (inactive)
same,GI50,HT-29,24.7 µM (inactive)
same,GI50,IGROV-1,38.8 µM (inactive)
same,GI50,K562,25.9 µM (inactive)
same,GI50,KM-20L2,20.1 µM (inactive)
same,GI50,KM12,25.8 µM (inactive)
same,GI50,LOX IMVI,32.1 µM (inactive)
same,GI50,LXFL 529,29.6 µM (inactive)
same,GI50,M14,18.1 µM (inactive)
same,GI50,M19-MEL,27.8 µM (inactive)
same,GI50,MOLT-4,24.3 µM (inactive)
same,GI50,Malme-3M,19.6 µM (inactive)
same,GI50,NCI-H226,31 µM (inactive)
same,GI50,NCI-H23,85.5 µM (inactive)
same,GI50,NCI-H460,27.3 µM (inactive)
same,GI50,NCI-H522,18.2 µM (inactive)
same,GI50,OVCAR-3,34.8 µM (inactive)
same,GI50,OVCAR-5,> 100 µM (inactive)
same,GI50,OVCAR-8,69.3 µM (inactive)
same,GI50,RPMI-8226,21.9 µM (inactive)
same,GI50,RXF 393,12.4 µM (inactive)
same,GI50,RXF 631,22.2 µM (inactive)
same,GI50,SF-268,31.7 µM (inactive)
same,GI50,SF-295,44.5 µM (inactive)
same,GI50,SF-539,21.4 µM (inactive)
same,GI50,SK-MEL-28,16.4 µM (inactive)
same,GI50,SK-MEL-2,28.1 µM (inactive)
same,GI50,SK-MEL-5,14.4 µM (inactive)
same,GI50,SK-OV-3,37.3 µM (inactive)
same,GI50,SN12C,32.6 µM (inactive)
same,GI50,SNB-19,88.5 µM (inactive)
same,GI50,SNB-75,40 µM (inactive)
same,GI50,SNB-78,65.9 µM (inactive)
same,GI50,SR,18 µM (inactive)
same,GI50,SW-620,34.3 µM (inactive)
same,GI50,TK-10,33.9 µM (inactive)
same,GI50,U-251,30 µM (inactive)
same,GI50,UACC-257,20.5 µM (inactive)
same,GI50,UACC-62,7.76 µM (inactive)
same,GI50,UO-31,19.1 µM (inactive)
same,GI50,XF498,19.1 µM (inactive)
O=C1c2ccccc2C2(O)Oc3cccc(O)c3C12O (stereo not drawn),GI50,786-0,> 100 µM (inactive)
same,GI50,A498,> 100 µM (inactive)
same,GI50,A549,> 100 µM (inactive)
same,GI50,ACHN,> 100 µM (inactive)
same,GI50,CAKI-1,> 100 µM (inactive)
same,GI50,CCRF-CEM,> 100 µM (inactive)
same,GI50,COLO 205,> 100 µM (inactive)
same,GI50,DLD-1,> 100 µM (inactive)
same,GI50,DMS-114,> 100 µM (inactive)
same,GI50,DMS-273,> 100 µM (inactive)
same,GI50,EKVX,> 100 µM (inactive)
same,GI50,HCC 2998,> 100 µM (inactive)
same,GI50,HCT-116,> 100 µM (inactive)
same,GI50,HCT-15,> 100 µM
same,GI50,HL-60,> 100 µM (inactive)
same,GI50,HOP-18,> 100 µM (inactive)
same,GI50,HOP-62,> 100 µM (inactive)
same,GI50,HOP-92,> 100 µM (inactive)
same,GI50,HT-29,> 100 µM (inactive)
same,GI50,IGROV-1,> 100 µM (inactive)
same,GI50,K562,> 100 µM (inactive)
same,GI50,KM-20L2,> 100 µM (inactive)
same,GI50,KM12,> 100 µM (inactive)
same,GI50,LOX IMVI,> 100 µM (inactive)
same,GI50,LXFL 529,> 100 µM (inactive)
same,GI50,M14,> 100 µM (inactive)
same,GI50,M19-MEL,> 100 µM (inactive)
same,GI50,MOLT-4,> 100 µM (inactive)
same,GI50,Malme-3M,> 100 µM (inactive)
same,GI50,NCI-H226,> 100 µM (inactive)
same,GI50,NCI-H23,> 100 µM (inactive)
same,GI50,NCI-H460,> 100 µM (inactive)
same,GI50,NCI-H522,> 100 µM (inactive)
same,GI50,OVCAR-3,> 100 µM (inactive)
same,GI50,OVCAR-4,> 100 µM (inactive)
same,GI50,OVCAR-5,> 100 µM (inactive)
same,GI50,OVCAR-8,> 100 µM (inactive)
same,GI50,RPMI-8226,> 100 µM (inactive)
same,GI50,RXF 631,> 100 µM (inactive)
same,GI50,SF-268,> 100 µM (inactive)
same,GI50,SF-295,> 100 µM (inactive)
same,GI50,SF-539,> 100 µM (inactive)
same,GI50,SK-MEL-28,> 100 µM (inactive)
same,GI50,SK-MEL-2,> 100 µM (inactive)
same,GI50,SK-MEL-5,> 100 µM (inactive)
same,GI50,SK-OV-3,> 100 µM (inactive)
same,GI50,SN12C,> 100 µM (inactive)
same,GI50,SNB-19,> 100 µM (inactive)
same,GI50,SNB-75,> 100 µM (inactive)
same,GI50,SNB-78,> 100 µM (inactive)
same,GI50,SR,> 100 µM (inactive)
same,GI50,SW-620,> 100 µM (inactive)
same,GI50,TK-10,> 100 µM (inactive)
same,GI50,U-251,> 100 µM (inactive)
same,GI50,UACC-257,> 100 µM (inactive)
same,GI50,UACC-62,62.5 µM (inactive)
same,GI50,UO-31,> 100 µM (inactive)
COC(=O)/C(C#N)=C1\NN=NN1CCCc1ccccc1,GI50,786-0,> 100 µM (inactive)
same,GI50,A498,84.3 µM (inactive)
same,GI50,A549,> 100 µM (inactive)
same,GI50,ACHN,> 100 µM (inactive)
same,GI50,CAKI-1,> 100 µM (inactive)
same,GI50,CCRF-CEM,> 100 µM (inactive)
same,GI50,COLO 205,> 100 µM (inactive)
same,GI50,DLD-1,> 100 µM (inactive)
same,GI50,DMS-114,> 100 µM (inactive)
same,GI50,DMS-273,> 100 µM (inactive)
same,GI50,EKVX,> 100 µM (inactive)
same,GI50,HCC 2998,> 100 µM (inactive)
same,GI50,HCT-116,> 100 µM (inactive)
same,GI50,HCT-15,> 100 µM
same,GI50,HOP-18,90.6 µM (inactive)
same,GI50,HOP-92,> 100 µM (inactive)
same,GI50,HT-29,> 100 µM (inactive)
same,GI50,IGROV-1,> 100 µM (inactive)
same,GI50,K562,> 100 µM (inactive)
same,GI50,KM12,> 100 µM (inactive)
same,GI50,LOX IMVI,> 100 µM (inactive)
same,GI50,LXFL 529,> 100 µM (inactive)
same,GI50,M14,> 100 µM (inactive)
same,GI50,M19-MEL,> 100 µM (inactive)
same,GI50,MOLT-4,> 100 µM (inactive)
same,GI50,Malme-3M,> 100 µM (inactive)
same,GI50,NCI-H226,> 100 µM (inactive)
same,GI50,NCI-H23,> 100 µM (inactive)
same,GI50,NCI-H460,> 100 µM (inactive)
same,GI50,NCI-H522,13.5 µM (inactive)
same,GI50,OVCAR-3,> 100 µM (inactive)
same,GI50,OVCAR-8,> 100 µM (inactive)
same,GI50,RPMI-8226,> 100 µM (inactive)
same,GI50,RXF 393,> 100 µM (inactive)
same,GI50,RXF 631,> 100 µM (inactive)
same,GI50,SF-295,> 100 µM (inactive)
same,GI50,SF-539,> 100 µM (inactive)
same,GI50,SK-MEL-28,> 100 µM (inactive)
same,GI50,SK-MEL-5,> 100 µM (inactive)
same,GI50,SK-OV-3,> 100 µM (inactive)
same,GI50,SN12C,> 100 µM (inactive)
same,GI50,SNB-19,> 100 µM (inactive)
same,GI50,SNB-75,> 100 µM (inactive)
same,GI50,SNB-78,> 100 µM (inactive)
same,GI50,SW-620,> 100 µM (inactive)
same,GI50,TK-10,> 100 µM (inactive)
same,GI50,U-251,> 100 µM (inactive)
same,GI50,UACC-257,> 100 µM (inactive)
same,GI50,UACC-62,> 100 µM (inactive)
same,GI50,UO-31,76.4 µM (inactive)
